# Key:
# dopaminergic neurons = test: Survival of dopaminergic neurons with paraquat 25 μM challenge (Example 1, FIG. 1); type: cell-based, mouse
# Protocol: Dopaminergic neurons were isolated and plated at a concentration of 1.000.000 cells/ml (100 μl/well) in a 96 well plate and cultured in medium with one or more of the various factors indicated, as described in the examples below. The survival of dopaminergic neurons in the presence and absence of various agents of the invention, either with or without paraquat challenge, is shown by the number of TH positive neurons normalized to the control treatment.
# Dopaminergic neurons were isolated and plated at a concentration of 1.000.000 cells/ml (100 μl/well) in a 96 well plate. After 3-4 hours incubation at 37° C., 20 μl of medium was removed from each well. (VF=80 μl). Changes in medium and start point of the treatment were done in the following day in vitro (DIV). The following protocol was employed in order to assess the survival of dopaminergic neurons in the presence and absence of various agents of the invention combination, either with or without paraquat challenge. • DIV.1: Change half of medium N2 (40 μl) with fresh medium N2. • DIV.3: Change half of the medium and start with medium (control) or with medium A containing LA (different concentrations) and/or GA (normally 5 mM or 10 mM). Medium A is N2 medium but without FBS and N2-Supplement. • DIV.5: Second round of control or treatment with LA and/or GA. Half of the medium (40 μl) was replaced by fresh medium A with the different agents. • DIV.7: Paraquat 25 μM treatment starts with or without GA and L-alanine. Half of the medium (40 μl) was replaced by fresh medium A with the different treatment combinations or without (control). • DIV.9: Second day of treatment with Paraquat (PQ) 25 μM in addition to the other substances (LA and GA). • DIV.10: Fixation 2% of PFA during 20 min at 37° C. or overnight at 4° C.
# Primary mesencephalic neuronal cell cultures were prepared as previously described. Briefly, E14.5 embryos were obtained from C57JBL6 pregnant mice after cervical dislocation. Brain mesencephali were dissected under the microscope and digested with Trypsin-EDTA 0.12% (Life Technologies, USA) for 7 min. The trypsin reaction was then stopped by adding basic medium (BM), containing Neurobasal A medium (Gibco, USA), 1 mg/mL Pen/Strep, 10% FCS, and […] L-Glutamine, and cells were mechanically dissociated using a fire-polished Pasteur pipette. Medium was fully replaced after 5 min, centrifugation at 1200 rpm, aspiring the supernatant and adding 8 mL of fresh BM to the pellet. Concentration of cells in the medium was estimated using a Neubauer chamber and a 100 μL of medium containing 10^6 cells/mL plated per well in a 96-well plate (Greiner Sensoplate, Germany, EU). Then a 20 μL of medium was removed from the well and 24 h later, ⅓ of the media was replaced with fresh BM. […]
# PARK-7 −/− HeLa cells = test: Cell growth of PARK-7 −/− HeLa cells; type: cell-based, human; details: 5 mM, FIG. 16
# Protocol: GA enhances cell proliferation in PARK-7 −/− HeLa cells. […] Knocking-down PARK-7 with CRISP/Cas-9 leads to a reduced cell proliferation when compared to WT cells. […] Treatment with GA increases cell proliferation in HeLa cells.
# Cell growth was determined by two different methods. The first method (WST1-Assay) was used to analyze cell growth at different time points using the same plates: 500 cells of 8 different PARK7 KO clones and HeLa Kyoto wild type cells were seeded in 96 well plates (6 wells/line). For each time point (0 h, 48 h, 122 h, and 144 h), WST1 was added to the cells according to the manufacturers instructions and incubated for 30 min at 37° C. Absorbance was measured at 450 nm and 620 nm using an EnVision Plate Reader (PerkinElmer).
# The second method was used to analyze the rescue effect of GA and DL. Briefly, HeLa cells were seeded and treated with medium containing distilled water, 5 mM GA, or 5 mM DL. 48 hours later, the number of living cells was calculated with the help of an automated cell counter (ThermoFischer, USA).
# HeLa-Kyoto PARK7 KO clones had been kindly provided by Martin Stewart (Koch Institute, MIT, Cambridge, USA). Briefly, cells were electroporated with the NEON device (Invitrogen) using a sgRNA-Cas9-NLS complex targeting human PARK7 at exon 1. […]
# [1] = system: DJ-1 RNAi depleted HeLa cells; details: DJ-1 RNAi depleted HeLa cells or paraquat challenge; cited from earlier work
structure (smiles),measurement,setting,value
"O=C(O)CO [GA, 2-hydroxyethanoic acid]",survival of dopaminergic neurons (rescue),dopaminergic neurons; 5 mM GA with PQ 25 μM,rescue over PQ treatment alone
same,survival of dopaminergic neurons (rescue),dopaminergic neurons; 10 mM GA with PQ 25 μM,rescued completely
same,cell proliferation (number of cells after 48 hours),PARK-7 −/− HeLa cells,rescues cell proliferation defects
same,mitochondrial potential,[1],maintain or rescue mitochondrial potential
